{
  "source": "patent US20220315624A1",
  "about": "“THIOSTREPTON ANALOGS AND METHODS OF MAKING AND USING SAME” (YALE UNIVERSITY, priority 2019, published 2022)",
  "key": {"S. aureus MMX 8088 MRSA": {"system": "S. aureus MMX 8088 MRSA", "assay": "MIC broth microdilution", "format": "cell-based", "conditions": "Staphylococcus aureus", "experimental": "(§1) Twenty-four test agents were shipped to Micromyx and stored at −20° C. until assayed. The compounds were dissolved in 100% DMSO at 6.46 mg/mL prior to testing. Comparator drugs were supplied by Micromyx and were handled as described below:\n(§2) The test organisms for the assay were recent clinical isolates or reference strains acquired from the American Type Culture Collection (ATCC; Manassas, Va.). Upon receipt, the isolates were streaked onto Trypticase Soy Agar II+5% sheep blood (TSAB). Colonies were harvested from the plates and a cell suspension was prepared in Trypticase Soy Broth containing cryoprotectant. Aliquots were then frozen at −80° C. Prior to the assay, the frozen seeds of all bacterial isolates to be tested were thawed and streaked for isolation onto TSAB (BD/BBL, Sparks, Md.; Lot No. 9011894), and were incubated overnight at 35° C.\n(§3) The test medium for all isolates was cation-adjusted Mueller Hinton broth (CAMHB; BD/BBL; Lot No. 8190586). CAMHB (Cation Adjusted Mueller Hinton Broth) was supplemented with 3% (v/v) lysed horse blood (LHB; Hemostat, Dixon, Calif.; Lot No. 474990) for the testing of streptococci.\n(§4) MIC values were determined using a broth microdilution method as recommended by CLSI. Automated liquid handlers (Multidrop 384, Labsystems, Helsinki, Finland; Biomek 2000 and Biomek F/X, Beckman Coulter, Fullerton Calif.) were used to conduct serial dilutions and make liquid transfers.\n(§5) The wells of standard 96-well microdilution plates (Costar 3795, Corning Inc., Corning, N.Y.) were filled with 150 μL of the appropriate diluent in columns 2-12 on the Multidrop 384 (DMSO for the thiostrepton analogs, deionized H2O for vancomycin and ceftazidime). These plates were used to prepare the drug “mother plate” which provided the serial drug dilutions for the replicate “daughter plates”. The compounds (300 μL) were dispensed at 101× the highest concentration to be tested into the appropriate row of the “mother plate”. The Biomek 2000 was used to transfer 150 μL of each stock solution from the wells in Column 1 of the mother plate to make ten subsequent 2-fold serial dilutions. The wells of Column 12 contained no drug and served as the organism growth control wells. The daughter plates were loaded with 190 μL of test medium using the Multidrop 384.\n(§6) The daughter plates were prepared on the Biomek F/X instrument which transferred […] of drug solution from each well of the mother plate to each corresponding well of each daughter plate in a single step. The wells of the daughter plates ultimately contained 190 μL of media, 2 μL of drug solution, and 10 μL of inoculum prepared as described below. The final concentration of DMSO (if used as a solvent) in the test well was 1%.\n(§7) A standardized inoculum of each organism was prepared per CLSI methods. A suspension of organisms from a fresh plate was prepared in CAMHB to equal the turbidity of a 0.5 McFarland standard. The suspensions were diluted 1:20 in CAMHB, or in the case of streptococci CAMHB with LHB. The inoculum for each organism was dispensed into sterile reservoirs divided by length (Beckman Coulter), and the Biomek 2000 was used to inoculate the plates. Daughter plates were placed on the Biomek 2000 work surface reversed so that inoculation took place from low to high drug concentration. The Biomek 2000 delivered 10 μL of standardized inoculum into each well. These dilutions yielded a final cell concentration in the daughter plates of approximately 5.0×10^5 CFU/mL.\n(§8) Plates were stacked 3 high, covered with a lid on the top plate, placed in plastic bags, and incubated at 35° C. for 16-20 hr for all organisms except streptococci which were incubated for 20-24 hr. Following incubation, the microplates were removed from the incubator and viewed from the bottom using a plate viewer. The MIC was read and recorded as the lowest concentration of drug that inhibited visible growth of the organism. […]"}, "[1]": {"system": "S. pneumoniae ATCC 49619 PISP", "assay": "MIC broth microdilution", "format": "cell-based", "conditions": "Streptococcus pneumoniae, ATCC49619, 20 h", "experimental": "as §1, §2, §3, §4, §5, §6, §7, §8"}, "S. pyogenes ATCC 19615": {"system": "S. pyogenes ATCC 19615", "assay": "MIC broth microdilution", "format": "cell-based", "conditions": "Streptococcus pyogenes, ATCC19615, 20 h", "experimental": "as §1, §2, §3, §4, §5, §6, §7, §8"}, "E. faecalis MMX 486 VRE": {"system": "E. faecalis MMX 486 VRE", "assay": "MIC broth microdilution", "format": "cell-based", "conditions": "Enterococcus faecalis", "experimental": "as §1, §2, §3, §4, §5, §6, §7, §8"}, "E. coli ATCC 25922 [2]": {"system": "E. coli ATCC 25922", "assay": "MIC broth microdilution", "format": "cell-based", "conditions": "Escherichia coli, ATCC25922", "experimental": "as §1, §2, §3, §4, §5, §6, §7, §8"}, "E. faecium MMX 708 VSE": {"system": "E. faecium MMX 708 VSE", "assay": "MIC broth microdilution", "format": "cell-based", "conditions": "Enterococcus faecium, MMX708VSE", "experimental": "as §1, §2, §3, §4, §5, §6, §7, §8"}, "[3]": {"system": "E. faecalis ATCC 29212 VSE", "assay": "MIC broth microdilution", "format": "cell-based", "conditions": "Enterococcus faecalis, ATCC29212", "experimental": "as §1, §2, §3, §4, §5, §6, §7, §8"}, "[4]": {"system": "S. aureus ATCC 29213 MSSA", "assay": "MIC broth microdilution", "format": "cell-based", "conditions": "Staphylococcus aureus", "experimental": "as §1, §2, §3, §4, §5, §6, §7, §8"}, "E. faecium MMX 485 VRE": {"system": "E. faecium MMX 485 VRE", "assay": "MIC broth microdilution", "format": "cell-based", "conditions": "Enterococcus faecium", "experimental": "as §1, §2, §3, §4, §5, §6, §7, §8"}, "E. coli ATCC 25922 [5]": {"system": "E. coli ATCC 25922", "conditions": "range in parentheses; cited from earlier work"}, "[6]": {"system": "S. aureus ATCC 29213 MSSA", "conditions": "range in parentheses; cited from earlier work"}, "[7]": {"system": "S. pneumoniae ATCC 49619 PISP", "conditions": "range in parentheses; cited from earlier work"}, "[8]": {"system": "E. faecalis ATCC 29212 VSE", "conditions": "range in parentheses; cited from earlier work"}},
  "note": "Where two headings read alike, the source gives them in different places.",
  "data": [
    {"compound": "CC(C)(O/N=C(\\C(=O)N[C@@H]1C(=O)N2C(C(=O)[O-])=C(C[n+]3ccccc3)CS[C@H]12)c1csc(N)n1)C(=O)O", "note": "[Ceftazidime, reference compound]", "values": [
      {"measurement": "MIC", "setting": "S. aureus MMX 8088 MRSA; S. aureus MMX 8088 MRSA, CAMHB, read-out: MIC", "result": "> 32", "unit": "µg/mL"},
      {"measurement": "MIC", "setting": "[1]; S. pneumoniae ATCC 49619 PISP, CAMHB with 3% lysed horse blood, read-out: MIC", "result": 0.5, "unit": "µg/mL"},
      {"measurement": "MIC", "setting": "S. pyogenes ATCC 19615; S. pyogenes ATCC 19615, CAMHB with 3% lysed horse blood, read-out: MIC", "result": 0.12, "unit": "µg/mL"},
      {"measurement": "MIC", "setting": "E. faecalis MMX 486 VRE; E. faecalis MMX 486 VRE, CAMHB, read-out: MIC", "result": "> 32", "unit": "µg/mL"},
      {"measurement": "MIC", "setting": "E. coli ATCC 25922 [2]; E. coli ATCC 25922, CAMHB, read-out: MIC", "result": 0.25, "unit": "µg/mL"},
      {"measurement": "MIC", "setting": "E. faecium MMX 708 VSE; E. faecium MMX 708 VSE, CAMHB, read-out: MIC", "result": "> 32", "unit": "µg/mL"},
      {"measurement": "MIC", "setting": "[3]; E. faecalis ATCC 29212 VSE, CAMHB, read-out: MIC", "result": "> 32", "unit": "µg/mL"},
      {"measurement": "MIC", "setting": "[4]; S. aureus ATCC 29213 MSSA, CAMHB, read-out: MIC", "result": 8, "unit": "µg/mL"},
      {"measurement": "MIC", "setting": "E. faecium MMX 485 VRE; E. faecium MMX 485 VRE, CAMHB, read-out: MIC", "result": "> 32", "unit": "µg/mL"},
      {"measurement": "CLSI quality control range (MIC)", "setting": "E. coli ATCC 25922 [5]", "result": "0.06 to 0.5", "unit": "µg/mL"},
      {"measurement": "CLSI quality control range (MIC)", "setting": "[6]", "result": "4 to 16", "unit": "µg/mL"}
    ]},
    {"compound": "CN[C@H](CC(C)C)C(=O)N[C@H]1C(=O)N[C@@H](CC(N)=O)C(=O)N[C@H]2C(=O)N[C@H]3C(=O)N[C@H](C(=O)N[C@H](C(=O)O)c4cc(O)cc(O)c4-c4cc3ccc4O)[C@H](O)c3ccc(c(Cl)c3)Oc3cc2cc(c3O[C@@H]2O[C@H](CO)[C@@H](O)[C@H](O)[C@H]2O[C@H]2C[C@](C)(N)[C@H](O)[C@H](C)O2)Oc2ccc(cc2Cl)[C@H]1O", "note": "[Vancomycin, reference compound]", "values": [
      {"measurement": "CLSI quality control range (MIC)", "setting": "[7]", "result": "0.12 to 0.5", "unit": "µg/mL"},
      {"measurement": "MIC", "setting": "S. aureus MMX 8088 MRSA; MRSA", "result": 1, "unit": "µg/mL"},
      {"measurement": "MIC", "setting": "[1]", "result": 0.12, "unit": "µg/mL"},
      {"measurement": "MIC", "setting": "S. pyogenes ATCC 19615", "result": 0.25, "unit": "µg/mL"},
      {"measurement": "MIC", "setting": "E. faecalis MMX 486 VRE; VRE", "result": "> 32", "unit": "µg/mL"},
      {"measurement": "MIC", "setting": "E. coli ATCC 25922 [2]", "result": "> 64", "unit": "µg/mL"},
      {"measurement": "MIC", "setting": "E. faecium MMX 708 VSE", "result": 0.25, "unit": "µg/mL"},
      {"measurement": "MIC", "setting": "[3]", "result": 2, "unit": "µg/mL"},
      {"measurement": "MIC", "setting": "[4]", "result": 1, "unit": "µg/mL"},
      {"measurement": "MIC", "setting": "E. faecium MMX 485 VRE; VRE", "result": "> 32", "unit": "µg/mL"},
      {"measurement": "CLSI quality control range (MIC)", "setting": "[6]", "result": "0.5 to 2", "unit": "µg/mL"},
      {"measurement": "CLSI quality control range (MIC)", "setting": "[8]", "result": "1 to 4", "unit": "µg/mL"}
    ]}
  ]
}
